# Laboratory results from publication PMC5340040 (BMC Biochemistry, 2017).
# No end group written: not given here.
# What was measured:
# MgF-actin [1] = target: T1, MgF-actin (Oryctolagus cuniculus, UniProt P68135); assay: Extent of F-actin bundling by low speed centrifugation; assay type: biochemical, rabbit
# T1 construct: MgF-actin was polymerized from CaATP-G-actin by 30 min incubation with 2 mM MgCl2 at 22 °C; tissue Pel-Freez Biologicals (Rogers, AR) (acetone powder); host or cells: rabbit back and leg skeletal muscle
# Method: CaATP-G-actin was stored in a buffer containing 5 mM TrisHCl, 0.2 mM CaCl2, 0.2 mM ATP, 0.5 mM β-mercaptoethanol, pH 8.0 (CaATP-G-buffer). MgF-actin was polymerized from CaATP-G-actin by 30 min incubation with 2 mM MgCl2 at 22 °C. MgF-actin was diluted for further treatments in MgF-buffer containing 5 mM 3-(N-morpholino) propanesulfonic acid (MOPS), 2 mM MgCl2, 0.2 mM ATP and 0.5 mM DTT, pH 7.4. The concentration of G- and F-actin was determined using the extinction coefficient E^1% 290 = 11.5 cm-^1. (The optical density of actin was measured in the presence of 0.5 M NaOH, which shifts the maximum of absorbance from 280 to 290 nm).
# Extent of actin polymerization and bundling was measured by high speed centrifugation at 129,151 x g for 2 h and by low speed centrifugation at 20,800 x g for 8 min, respectively. The centrifugations were carried out at 4 °C. The supernatants were separated by 12% sodium dodecyl sulfate polyacrylamide electrophoresis (SDS−PAGE) and analyzed by densitometry using the TINA 2.07d software.
# Bundling was carried out at low ionic strength. a and b bundling kinetics of 4 μM F-actin was followed by light scattering change as described in Methods. […] Upper panels quantitative evaluation of bundling, lower panels, representative SDS-PAGE of the supernatants
# Effect of pH on bundling. […]
# MgF-actin [2] = target: T1, MgF-actin; assay: Transglutaminase cross-linking to F-actin; assay type: binding, rabbit; settings: 22 °C; for effect of phalloidin on extent of F-actin cross-linking: 4 μM F-actin, 8 μM Fl-peptide, 8 μM phalloidin, 0.3 mg/ml TGase, 30 min
# Excerpt: Lower panels are representative SDS-PAGE-s. […] Lower panel, SDS-PAGE visualized by fluorescence
# Upper panel, quantitative evaluation of SDS-PAGE by densitometry. Lower panel Coomassie blue stained representative SDS-PAGE
# G-actin [3] = assay: Inhibition of TGase cross-linking to G-actin by NaCl, DNase1 and cofilin; assay type: binding, rabbit; settings: 6 μM Fl-histatin, 4 μM G-actin; for effect of NaCl on cross-linking to G-actin: 0.3 mg/ml TGase, 1 min
# Method: Here we studied the effect of these agents on the cross-link formation between G-actin and histatins. In these experiments NaCl, histatins, TGase were added simultaneously to G-actin and incubated for 1 min only to avoid significant actin polymerization.
# Samples were treated with TGase for 1 min. Upper panel, evaluation of SDS-PAGE. Lower panel, representative SDS-PAGE visualized by Coomassie blue. b Inhibition of cross-linking by DNase1 and cofilin. Samples were treated with TGase for 5 min
# TG-G-actin [4] = assay: Cross-linking to TGase pretreated G-actin (TG-G-actin) vs G-actin; cross-linking site; assay type: binding, rabbit; settings: 4.5 μM Fl-histatin; for cross-linked product with TGase pretreated vs untreated G-actin: 4 μM G-actin or TG-G-actin, 0.3 mg/ml TGase, 30 min, 22 °C; for cross-linking site in the D-loop of G-actin: TG-G-actin (Gln41 blocked)
# Method: Preparation of TG-G-actin: 108 μM CaATP-G-actin was incubated with 4 mg/ml TGase at 4 °C for 24 h. After cross-linking samples were run on SDS-PAGE and evaluated by densitometry. Upper panel quantitative evaluation of SDS-PAGE by densitometry. Lower panel representative SDS-PAGE visualized by Coomassie blue
# [5] = system: subtilisin / trypsin digested G-actin; assay: Cross-linking to subtilisin or trypsin fragments of G-actin; assay type: binding, rabbit; settings: 4 μM G-actin, 6 μM Fl-histatin, 0.3 mg/ml TGase, 30 min, 22 °C; for cross-linking to subtilisin fragments (Asp1-Met47 N-terminal, Gly48-Phe375 C-terminal): 1.5 μg/ml subtilisin; for cross-linking to Tyr69-Arg372 C-terminal tryptic fragment: 20 μg/ml trypsin
# Method: Trypsin and subtilisin digestions were stopped by 40 μg/ml STI and 1 mM PMSF, respectively. Samples were run on SDS-PAGE. Left, lanes visualized by Coomassie blue; right, lanes visualized by fluorescence, marked by (*). Legend: (a) actin; (b) trypsin digested actin; (c) trypsin digested actin cross-linked with Fl-histatin-3 or Fl-histatin-5; (d) subtilisin digested actin; (e) subtilisin digested actin cross-linked with Fl-histatin-3 or Fl-histatin-5; nf), actin cross-linked with Fl-histatin-3 or Fl-histatin-5. a Fl-histatin-3-actin fragments cross-linked bands; b Fl-histatin-5-actin fragments cross-linked bands. Lane M, molecular weight marker
# CaATP-G-actin [6] = settings: 22 °C
# Method: The reaction was stopped by addition of 1 mM cysteamine. Samples were subjected to 12% SDS-PAGE, visualized by Coomassie blue or fluorescence and evaluated by densitometry.
# Samples were treated with TGase at 22 °C for 30 and run on SDS-PAGE and evaluated by densitometry as described in Methods.
# Cross-linking with 0.3 mg/ml TGase for 30 min at 22 °C. Upper panel, quantitative evaluation of SDS-PAGE by densitometry.
# F-actin bundles = settings: ref [9]; cited from earlier work
# Excerpt: Both DNase1 and cofilin are actin binding proteins. DNase1 depolymerizes F-actin filament by binding to the protomer at the filaments ends and forming a tight complex with the protomer by attachment to its DNase1 binding loop (D-loop). […] Cofilin disassembles actin bundles by severing the filaments through its effect on the structure of actin protomers [[19] ...
# CaATP-G-actin [7] = settings: ref [6], cited from earlier work
# Excerpt: Transglutaminase (TGase) catalyzes the formation of isopeptide bonds, which cross-links proximal glutamine and lysine residues in proteins. The TGase reaction produces both intramolecular cross-links in proteins and intermolecular cross-links between proteins and peptides.
# [8] = system: CaATP-G-actin (skeletal muscle); settings: ref [9]; cited from earlier work
# Method: The pK of histidine is around pH 6.5 depending on the environment of the residue in the protein structure. This means that its charge changes with pH in the neutral pH region. Histidine is positively charged at slightly acidic pH and neutral above pH 7.0. Since actin polymerization is dependent on the number of positive charges of the polymerizing agent, the effect of pH 6.5, 7.4 and 8.2 on the polymerization of G-actin by histatins was measured (Fig. 1d).
# [9] = system: CaATP-G-actin (skeletal muscle); assay: Actin polymerization, pyrene-actin fluorescence kinetics; assay type: biochemical, rabbit; settings: 4 μM CaATP-G-actin; 8 μM histatin-3, 20 μM histatin-5, 7 μM LL-37; pH 6.5, 7.4 and 8.2; 22 °C
# Method: Labeling of Mg-F-actin at Cys-374 with pyrene maleimide was carried out according to Kouyama and Mihashi with some modifications. CaATP-G-actin was filtered through a PD-10 column (GE Healthcare) equilibrated with β-mercaptoethanol-free CaATP-G-buffer. After filtration, G-actin (1 mg/ml) was polymerized by 2 mM MgCl2 and 100 mM KCl at 22 °C for 30 min, and reacted with pyrene maleimide (16 μg/ml) on ice, for 1 h. The reaction was terminated with 1 mM DTT. Labeled F-actin was centrifuged at 129,151 x g for 2 h; the pellet was resuspended in Ca-ATP-G-buffer and depolymerized by dialyzing in this buffer for 36 h at 4 °C with twice changing the buffer. Finally, actin was centrifuged again at 129,151 x g for 2 h. […] The concentration of modified actin was determined by the procedure of Bradford using unmodified actin as a standard. The extent of labeling was determined by using pyrene extinction coefficient E344 nm = 22,000 cm^−1M^−1, was ~100%.
# Actin polymerization was followed by fluorescence increase (at 365 nm excitation and 386 nm emission wavelengths) of pyrene-labeled G-actin [17], which was added to unlabeled G-actin in 10–15%. The kinetics of bundling of MgF−actin was monitored by increase in light scattering, with both excitation and emission wavelengths adjusted to 450 nm. All fluorescence and light scattering measurements were carried out at 22 °C. […]
# G-actin [10] = settings: ref [6]; cited from earlier work
# actin = settings: cited from earlier work
# Excerpt: Actin is a negatively charged structural protein and the most abundant protein in the eukaryotic cells. Actin, released from dead cells, is also present in the saliva. Actin has important roles in cytoskeleton formation, cell division, motility, adhesion, signaling and more. Actin exists in either monomer globular (G) or polymer filament (F) form, which are interconvertible into each other.
# TG-G-actin [11] = settings: ref [6]; cited from earlier work
# Excerpt: TGase catalyzes covalent cross-linking of glutamine and lysine residues in proteins. Since in the histatin-G-actin cross-linking reaction only actin contains glutamine residues, it follows that actin should be the glutamine donor in this case. […] Gln41 seems to be the preferred candidate for this role sinc ...
# [12] = 4 μM G- or F-actin, 8 μM histatin-3 or 6 μM LL-37, 0.4 mg/ml TGase
compound,measurement,setting,value
CC(C)C[C@H](NC(=O)[C@H](Cc1ccc(O)cc1)NC(=O)[C@H](CC(N)=O)NC(=O)[C@H](CO)NC(=O)[C@H](CCCNC(=N)N)NC(=O)[C@H](Cc1ccc(O)cc1)NC(=O)CNC(=O)[C@H](CCCNC(=N)N)NC(=O)[C@H](Cc1c[nH]cn1)NC(=O)[C@H](CO)NC(=O)[C@H](Cc1c[nH]cn1)NC(=O)[C@H](Cc1c[nH]cn1)NC(=O)[C@H](CCCCN)NC(=O)[C@H](CCC(=O)O)NC(=O)[C@H](Cc1c[nH]cn1)NC(=O)[C@H](Cc1ccccc1)NC(=O)[C@H](CCCCN)NC(=O)[C@H](CCCNC(=N)N)NC(=O)[C@H](CCCCN)NC(=O)[C@H](Cc1ccc(O)cc1)NC(=O)CNC(=O)[C@H](Cc1c[nH]cn1)NC(=O)[C@H](Cc1c[nH]cn1)NC(=O)[C@H](CCCNC(=N)N)NC(=O)[C@H](CCCCN)NC(=O)[C@H](C)NC(=O)[C@H](Cc1c[nH]cn1)NC(=O)[C@H](CO)NC(=O)[C@@H](N)CC(=O)O)C(=O)N[C@@H](Cc1ccc(O)cc1)C(=O)N[C@@H](CC(=O)O)C(=O)N[C@@H](CC(N)=O)C(=O)O [histatin-3],EC50,MgF-actin [1],5 µM
Fl-LL-37: tetramethylrhodamine labeled LL-37,effect of phalloidin on extent of F-actin cross-linking,MgF-actin [2],reduces greatly
"Fl-histatin-3: tetramethylrhodamine labeled histatin-3 (DSHAKRHHGYKRKFHEKHHSHRGYRSNYLYDN; also: tetramethylrhodamine label, position not given here)",effect of phalloidin on extent of F-actin cross-linking,MgF-actin [2],reduces greatly
same,effect of NaCl on cross-linking to G-actin,G-actin [3],NaCl inhibited the cross-linking
same,cross-linked product with TGase pretreated vs untreated G-actin,TG-G-actin [4],slightly less actin Fl-histatin-3 cross-linked products formed with TGase pretreated than with untreated G-actin
same,cross-linking site in the D-loop of G-actin,TG-G-actin [4],Gln-49 is the main glutamine donor in the D-loop of actin
same,"cross-linking to subtilisin fragments (Asp1-Met47 N-terminal, Gly48-Phe375 C-terminal)",[5],both fragments can be cross-linked
same,cross-linking to Tyr69-Arg372 C-terminal tryptic fragment,[5],can be also cross-linked
Fl-histatin-5: FAM labeled histatin-5,"quantity of cross-linked product with G-actin, comparison","CaATP-G-actin [6]; 4 μM CaATP-G-actin, 4–8 μM Fl-histatin, 0.3 mg/ml TGase",consistently greater than that of Fl-histatin-3
same,"extent of cross-linking to both G- and F-actin, comparison","CaATP-G-actin [6]; 4 μM G- and F-actin, 6 μM Fl-histatin, 0.3 mg/ml TGase",larger than that of Fl-histatin-3
same,effect of NaCl on cross-linking to G-actin,G-actin [3],NaCl inhibited the cross-linking
same,"inhibitory effect of cofilin on cross-linking, comparison of peptides","G-actin [3]; cofilin, TGase 5 min",less Fl-histatin-5 than with Fl-histatin-3
same,cross-linked product with TGase pretreated vs untreated G-actin,TG-G-actin [4],the same amount of cross-linked product formed
same,cross-linking site in the D-loop of G-actin,TG-G-actin [4],does not cross-link to Gln41 of G-actin
same,"cross-linking to subtilisin fragments (Asp1-Met47 N-terminal, Gly48-Phe375 C-terminal)",[5],cross-linked only to the C- but not to the N-terminal G-actin fragment
same,cross-linking to Tyr69-Arg372 C-terminal tryptic fragment,[5],can be also cross-linked
LLGDFFRKSKEKIGKEFKRIVQRIKDFLRNLVPRTES [LL-37],disassembly of polycation induced actin bundles by DNase1 and cofilin,F-actin bundles,DNase1 and cofilin disassemble LL-37 and lysozyme -induced actin bundles
same,extent of cross-link formation with F-actin vs G-actin,MgF-actin [2]; [12],significantly less than with G-actin
same,cross-linking of LL-37 to actin by TGase,CaATP-G-actin [7]; [25],can be cross-linked to actin by TGase
same,binding site on actin,CaATP-G-actin [7],binds preferentially to the D-loop of actin
same,cross-linking to G- and F-actin by TGase,CaATP-G-actin [6]; [12],cross-linked to both G- and F-actin like LL-37
same,concentration at which G-actin is polymerized at neutral pH,[8],at about the same concentration as histatin-3
same,effect of pH on kinetics of actin polymerization,[9],much less pH-dependent than the polymerization by histatins
same,effect of 200 mM NaCl on extent of cross-linking by LL-37,G-actin [10],did not affect the extent of cross-linking
same,"polymerization and bundling of actin, LL-37",actin; ref [9],polymerize G-actin to F actin and bundle F-actin into actin bundles
same,effect of pH on extent of F-actin bundling,"MgF-actin [1]; 8 μM MgF-actin, 5 μM histatin-3, 12 μM histatin-5, 5 μM LL-37, pH 6.5, 7.3 and 8.2 (Fig. 2d), 3–16 μM histatins at pH 6.5 and 7.4 (Fig. S1)",contrary to the bundling by LL-37
same,cross-linking site of LL-37 on actin,TG-G-actin [11],preferentially cross-linked to Gln-49
lysozyme: positively charged protein that interacts with actin,"polymerization and bundling of actin, lysozyme",actin; ref [8],polymerize G-actin to F actin and bundle F-actin into actin bundles
